One assay has as its system CAKI-1. Put plainly: NCI growth inhibition, CAKI-1. The following applies: Homo sapiens; CAKI-1 (Renal). It is filed as cell-based, human.
For another assay, the system named is SK-OV-3. As to the kind of experiment: NCI growth inhibition, SK-OV-3. Type of assay: cell-based, human. Conditions: Homo sapiens; SK-OV-3 (Ovarian).
The test system of the next assay is MALME-3M. Put plainly: NCI growth inhibition, MALME-3M. It is filed as cell-based, human. The following applies: Homo sapiens; MALME-3M (Melanoma).
The subject of a further assay is SK-MEL-5. As to the kind of experiment: NCI growth inhibition, SK-MEL-5. Type of assay: cell-based, human. The following applies: Homo sapiens; SK-MEL-5 (Melanoma).
In the next assay the test system is NCI-H460. As to the kind of experiment: NCI growth inhibition, NCI-H460. It is filed as cell-based, human. Conditions: Homo sapiens; NCI-H460 (Non-Small Cell Lung).
Assay [1] concerns Tumor Cells in Hollow Fibers. As to the kind of experiment: NCI Hollow Fiber Assay. Type of assay: in vivo.
A further assay concerns HeLa S-3 cells. As to the kind of experiment: Inhibition of cell growth, HeLa cells (SRB). It is filed as cell-based, human. The following applies: for IC50: Table 2, growth inhibition, 2 days, replicate experiments, read-out: CI50 HeLa Cells. The protocol: Growth inhibition (GI50) values were measured with HeLa S-3 cells selected for growth on plastic. […] One day later, a control plate was fixed by addition of TCA to 5%. After five rinses with tap water the plate was air dried and stored at 4° C. Test compounds were added to the remaining plates at 10-fold dilutions between 0.01 and 100 μM. Two days later all plates were fixed as described above. Cells were then stained by the addition of 100μl per well of 0.4% sulforhodamine B (SRB) in 1% acetic acid for 30 min at 4° C. Wells were then quickly rinsed 5×with acetic acid (1%) and allowed to air dry. The SRB was then solubilized by the addition of 100 μl per well of unbuffered 10 mM Tris base. Dye was quantified by measuring absorbance at 490 nm on a Molecular Devices kinetic microplate reader. Growth at each inhibitor concentration relative to the untreated control was calculated according to the following equation: percent growth=100×(T−To)/(C−To), where T was the average optical density (OD) of the test wells after 2 days of treatment, To was the average OD of the wells in the control plate on day 0 and C was the average OD of untreated wells. Plots of percent growth versus inhibitor concentration were used to determine the GI50.

The next assay concerns the target CyclinA/cdk2 (Homo sapiens, UniProt P24941). As to the kind of experiment: CyclinA/cdk2 protein kinase assay (histone H1 phosphorylation, immunopurified complex from HeLa). The following applies: read-out: IC50 CyclinA cdk2; Table 2; replicate experiments.
The target of the next assay is T1, CyclinB/cdk1 (Homo sapiens, UniProt P06493).
T1 construct: Monoclonal antibody against cyclinB (GNS1) is added to the supernatant; endogenous in cells
T1 sequence (P06493 whole entry): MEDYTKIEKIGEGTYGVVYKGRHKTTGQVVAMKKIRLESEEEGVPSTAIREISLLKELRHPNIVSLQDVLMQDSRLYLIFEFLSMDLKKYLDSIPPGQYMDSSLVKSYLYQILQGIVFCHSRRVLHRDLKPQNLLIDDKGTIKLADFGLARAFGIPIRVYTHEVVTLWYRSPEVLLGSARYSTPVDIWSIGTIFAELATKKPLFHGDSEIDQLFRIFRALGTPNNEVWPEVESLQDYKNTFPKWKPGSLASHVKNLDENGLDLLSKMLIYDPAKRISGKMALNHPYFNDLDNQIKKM
T1 sequence (P14635 whole entry partner): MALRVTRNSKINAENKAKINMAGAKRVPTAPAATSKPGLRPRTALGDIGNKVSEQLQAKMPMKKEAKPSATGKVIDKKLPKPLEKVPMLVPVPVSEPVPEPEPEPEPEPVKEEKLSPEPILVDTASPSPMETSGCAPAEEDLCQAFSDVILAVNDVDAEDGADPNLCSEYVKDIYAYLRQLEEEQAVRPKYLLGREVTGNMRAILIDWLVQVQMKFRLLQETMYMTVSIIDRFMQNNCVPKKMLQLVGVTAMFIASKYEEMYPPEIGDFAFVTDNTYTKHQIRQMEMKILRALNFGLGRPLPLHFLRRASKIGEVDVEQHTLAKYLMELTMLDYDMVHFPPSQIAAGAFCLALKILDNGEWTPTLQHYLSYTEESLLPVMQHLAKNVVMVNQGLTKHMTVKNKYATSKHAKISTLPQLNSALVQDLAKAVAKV
Put plainly: CyclinB/cdk1 protein kinase assay (histone H1 phosphorylation, immunopurified complex from HeLa). Type of assay: biochemical. Conditions: Table 2; replicate experiments.

For a further assay, the target named is CyclinE/cdk2 (Homo sapiens, UniProt P24941). As to the kind of experiment: CyclinE/cdk2 protein kinase assay (histone H1 phosphorylation, immunopurified complex from HeLa). Conditions: read-out: IC50 CyclinE cdk2; Table 2; replicate experiments.

“Also recorded” adds a separate entry of the source. Like-named read-outs stand apart in the source and are kept apart here.

Procedure for CyclinB/cdk1: HeLa cells are blocked at the G1/S border by culturing in the presence of 2 mM thymidine for 20 h. The cells are then rinsed 3×in phosphate buffered saline and resuspended in regular medium. After 4 h of culture, the mitotic blocker, nocodazole is added to a final concentration of 75 ng/ml. […] The lysate is then clarified by centrifugation at 10,000×g for 10 min. The supernatant is collected and diluted 1:5 with Lysis Buffer. Monoclonal antibody against cyclinB (GNS1) is added to the supernatant to a final concentration of 5 μg/ml and shaken at 4° C. for 2 h. The immune complexes are then collected by the addition of 200 μl of protein agarose beads for 1 h. The beads are washed 4×in lysis buffer and 1×in kinase assay buffer.
Duplicate assays were performed at each concentration.

Consider `CC(C)n1cnc2c(NCc3ccc(-c4ccsc4)cc3)nc(N[C@H]3CC[C@H](N)CC3)nc21` [Compound 12], for which the GI50 (commonly the concentration that inhibits growth by half) with CAKI-1 worked out at 38 nM; with SK-OV-3 it was 18 nM; with MALME-3M it was 10 nM; with SK-MEL-5, 14 nM; with NCI-H460, 15 nM. Moreover, the “Cell Types Killed” value in [1] is “H522, MDA-MB-435”. For the same molecule, the IC50 in the assay on HeLa S-3 cells came out at 0.1 nM.

For the molecule `CC[C@H](CO)Nc1nc(NCc2ccc(-c3ccccc3)cc2)c2ncn(C(C)C)c2n1` [Compound 73], the IC50 with HeLa S-3 cells was 500 nM.

`CC(C)n1cnc2c(NCc3ccc(-c4ccccn4)cc3)nc(N[C@H]3CC[C@H](N)CC3)nc21` [Compound 78]: in [1], the “Cell Types Killed” value is recorded as “H23, H522, OVCAR3, SF29”.

For `CC(=O)N[C@H]1CC[C@H](Nc2nc(NCc3ccc(-c4ccccn4)cc3)c3ncn(C(C)C)c3n2)CC1` [Compound 79], the IC50 at CyclinA/cdk2 was determined as 10000 nM.

Regarding `CC(C)n1cnc2c(NCc3ccc(-c4ccccc4)nc3)nc(N[C@H]3CC[C@H](N)CC3)nc21` [Compound 86], the “Cell Types Killed” value in [1] is “OVCAR 3, OVCAR 5, H522”.

On to `CC(C)n1cnc2c(NCc3ccc(-c4ccccn4)nc3)nc(N[C@H]3CC[C@H](N)CC3)nc21` [Compound 93], for which the IC50 in the assay with HeLa S-3 cells amounted to 300 nM.

Take `CC(=O)N[C@H]1CC[C@H](Nc2nc(NCc3ccc(-c4ccccn4)nc3)c3ncn(C(C)C)c3n2)CC1` [Compound 94]: the “Cell Types Killed” value in assay [1] was “COLO 205, OVCAR-3, H522”.

On to `CC(=O)N[C@H]1CC[C@H](Nc2nc(NCc3ccc(-c4ccc(C)cc4)cc3)c3ncn(C(C)C)c3n2)CC1` [Compound 97], for which the IC50 on CyclinB/cdk1 stood at 10000 nM.

`CC(C)n1cnc2c(NCc3ccc(-c4cccnc4)cc3)nc(N[C@H]3CC[C@H](N)CC3)nc21` [Compound 103]: in assay [1], the “Cell Types Killed” value was “OVCAR 3,OVCAR 5,; also recorded: H522, MDA-MB-435, SF295”.

For the molecule `CC(=O)N[C@@H](C)CNc1nc(NCc2ccc(-c3ccccc3)cc2)c2ncn(C(C)C)c2n1` [Compound 108], the IC50 at CyclinA/cdk2 worked out at 10000 nM.

On to `CC(=O)N[C@H]1CC[C@H](Nc2nc(NCc3ccc(-c4cccc(Cl)c4)cc3)c3ncn(C(C)C)c3n2)CC1` [Compound 110], for which the IC50 in the assay on HeLa S-3 cells stood at 20 nM.

For `CC(C)n1cnc2c(NCc3ccc(-c4cccs4)cc3)nc(N[C@H]3CC[C@H](N)CC3)nc21` [Compound 111], the IC50 turned out to be 200 nM on CyclinA/cdk2 and 70 nM on CyclinE/cdk2.

As for `CC(=O)N[C@H]1CC[C@H](Nc2nc(NCc3ccc(-c4ccsc4)cc3)c3ncn(C(C)C)c3n2)CC1` [Compound 113], the “Cell Types Killed” value in assay [1] is given as “H23, H522, OVCAR-3”.

Consider `CC(=O)N[C@H]1CC[C@H](Nc2nc(NCc3ccc(-c4ccsc4)nc3)c3ncn(C(C)C)c3n2)CC1` [Compound 124], for which the “Cell Types Killed” value in assay [1] is “H23, H522, OVCAR-3,; also recorded: MDA-MB-435”.

The molecule `CC[C@H](CO)Nc1nc(NCc2cccnc2)c2ncn(C(C)C)c2n1` [Compound 127, reference compound] displayed a 50% growth inhibitory concentration (GI50) with HeLa S-3 cells (Homo sapiens, HeLa S3, Table 3, reference compounds in comparison) of 7000 to 15000 nM.

Consider `CC(=O)N[C@H]1CC[C@H](Nc2nc(NCc3ccc(-c4cccc(C)c4)cc3)c3ncn(C(C)C)c3n2)CC1` [Compound 178], for which, in the assay with HeLa S-3 cells (Homo sapiens, HeLa S3, 48 h), the IC50 came to 400 nM.

For the molecule `COc1cccc(-c2ccc(CNc3nc(N[C@H]4CC[C@H](NC(C)=O)CC4)nc4c3ncn4C(C)C)cc2)c1` [Compound 180], the IC50 with HeLa S-3 cells (Homo sapiens, HeLa S3, 48 h) was determined as 400 nM.

With `CC(C)n1cnc2c(NCc3ccc(-c4ccccc4)cn3)nc(N[C@H]3CC[C@H](N)CC3)nc21` [Compound 229], in the assay with HeLa S-3 cells (Homo sapiens, HeLa S3, 48 h), the IC50 came to 400 nM.
